Key:
Format in all cases: in vivo
[1] = system: Cyperus difformis (smallflower umbrella plant); test: Test Example-1: herbicidal effect by a treatment before weeds are generated under submerged conditions; settings: 500 g a.i/ha, pre-emergence treatment, about 15 days after treatment, score 0-5
Summary of the method: (§1)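 This is a pre-emergence test under flooding: compound formulations were applied into the water at a set dosage on the day weeds were sown in puddled paddy soil. Weed control was rated on a six-step 0–5 scale roughly 15 days later.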

[2] = system: Echinochloa oryzicola (barnyard grass); test: as above; settings: 500 g a.i/ha, pre-emergence treatment, about 15 days after treatment, score 0-5
Summary of the method: as §1

[3] = system: Eleocharis acicularis (needle spikerush); test: as above; settings: 500 g a.i/ha, pre-emergence treatment, about 15 days after treatment, score 0-5
Summary of the method: as §1

[4] = system: Monochoria vaginalis (monochoria); test: as above; settings: 500 g a.i/ha, pre-emergence treatment, about 15 days after treatment, score 0-5
Summary of the method: as §1

[5] = system: Scirpus juncoides (bulrush); test: as above; settings: 500 g a.i/ha, pre-emergence treatment, about 15 days after treatment, score 0-5
Summary of the method: as §1

[6] = system: other annual broad leaf weeds (Lindernia procumbens, Rotala indica, Elatine triandra); test: as above; settings: 500 g a.i/ha, pre-emergence treatment, about 15 days after treatment, score 0-5
Summary of the method: as §1

[7] = system: Abutilon theophrasti (velvetleaf); test: Test Example-4: herbicidal effect by a foliage treatment after weeds are generated under upland field conditions; settings: 500 g a.i/ha, foliage treatment after emergence, about 14 days after treatment, score 0-5
Source text: (§2) Using the formulation prepared according to the methods described above, the herbicidal effect of the bicyclic pyrazolinone derivative of the invention according to the methods shown in Test Examples below was examined. The herbicidal effect with respect to the test weeds or the phytotoxicity with respect to the test crops was examined according to the following criteria, and evaluated in six stage scores of 0 to 5. A vat having an area of 65 cm^2 and a depth of 2 cm was filled with upland soil, then, seeds of Amaranthus viridis (green amaranthus), Abutilon theophrasti (velvetleaf), Chenopodium album (common lambsquarters), […]. While watering was suitably performed on there, the seeds were grown for 14 days. A wettable powder or an emulsifiable concentrate of the compound of the present invention prepared according to Formulation Example was diluted, and a spray treatment was uniformly performed on the foliage portion of the plant so as to be a predetermined dosage in the amount of water of 4000 L per hectare. The herbicidal effect with respect to the test weeds and the phytotoxicity with respect to corn about 14 days after the treatment were evaluated according to the evaluation criteria in six stages of 0 to 5 described above.

[8] = system: Amaranthus viridis (green amaranthus); test: as above; settings: 500 g a.i/ha, foliage treatment after emergence, about 14 days after treatment, score 0-5
Source text: as §2

[9] = system: Chenopodium album (common lambsquarters); test: as above; settings: 500 g a.i/ha, foliage treatment after emergence, about 14 days after treatment, score 0-5
Source text: as §2

corn = test: Test Example-4: phytotoxicity by a foliage treatment after weeds are generated under upland field conditions; settings: 500 g a.i/ha, foliage treatment after emergence, about 14 days after treatment, score 0-5
Source text: as §2

Structure (SMILES) | Herbicidal effect Cyperus difformis [1] | Herbicidal effect Echinochloa oryzicola [2] | Herbicidal effect Eleocharis acicularis [3] | Herbicidal effect Monochoria vaginalis [4] | Herbicidal effect Scirpus juncoides [5] | Herbicidal effect Broadleaf weed [6] | Herbicidal effect Abutilon theophrast [7] | Herbicidal effect Amaranthus viridis [8] | Herbicidal effect Chenopodium album [9] | Phytotoxicity Corn (corn)
COCOc1cc(-c2c(Cl)n3n(c2=O)CCCC3)c(F)cc1F [Example 1-90] | 5 (Herbicidal effect/phytotoxicity was 90% or greater) | 5 (Herbicidal effect/phytotoxicity was 90% or greater) | 5 (Herbicidal effect/phytotoxicity was 90% or greater) | 5 (Herbicidal effect/phytotoxicity was 90% or greater) | 5 (Herbicidal effect/phytotoxicity was 90% or greater) | 5 (Herbicidal effect/phytotoxicity was 90% or greater) | 5 (Herbicidal effect/phytotoxicity was 90% or greater) | 5 (Herbicidal effect/phytotoxicity was 90% or greater) | 5 (Herbicidal effect/phytotoxicity was 90% or greater) | 3 (Herbicidal effect/phytotoxicity was 50% to 70%)
C=CCOc1cc(-c2c(Cl)n3n(c2=O)CCCC3)c(F)cc1Cl [Example 1-201] | 5 (Herbicidal effect/phytotoxicity was 90% or greater) | 5 (Herbicidal effect/phytotoxicity was 90% or greater) | 5 (Herbicidal effect/phytotoxicity was 90% or greater) | 5 (Herbicidal effect/phytotoxicity was 90% or greater) | 5 (Herbicidal effect/phytotoxicity was 90% or greater) | 5 (Herbicidal effect/phytotoxicity was 90% or greater) | 5 (Herbicidal effect/phytotoxicity was 90% or greater) | 5 (Herbicidal effect/phytotoxicity was 90% or greater) | 5 (Herbicidal effect/phytotoxicity was 90% or greater) | 2 (Herbicidal effect/phytotoxicity was 30% to 50%)
C#CC(C)Oc1cc(-c2c(Cl)n3n(c2=O)CCCC3)c(F)cc1F (centres unmarked) [Example 1-114] | 5 (Herbicidal effect/phytotoxicity was 90% or greater) | 5 (Herbicidal effect/phytotoxicity was 90% or greater) | 5 (Herbicidal effect/phytotoxicity was 90% or greater) | 5 (Herbicidal effect/phytotoxicity was 90% or greater) | 5 (Herbicidal effect/phytotoxicity was 90% or greater) | 5 (Herbicidal effect/phytotoxicity was 90% or greater) | 5 (Herbicidal effect/phytotoxicity was 90% or greater) | 5 (Herbicidal effect/phytotoxicity was 90% or greater) | 5 (Herbicidal effect/phytotoxicity was 90% or greater) | 3 (Herbicidal effect/phytotoxicity was 50% to 70%)
C#CCOc1cc(-c2c(Cl)n3n(c2=O)CCCCC3)ccc1Cl [Example 1-63] | 5 (Herbicidal effect/phytotoxicity was 90% or greater) | 5 (Herbicidal effect/phytotoxicity was 90% or greater) | 5 (Herbicidal effect/phytotoxicity was 90% or greater) | 5 (Herbicidal effect/phytotoxicity was 90% or greater) | 5 (Herbicidal effect/phytotoxicity was 90% or greater) | 5 (Herbicidal effect/phytotoxicity was 90% or greater) | 5 (Herbicidal effect/phytotoxicity was 90% or greater) | 5 (Herbicidal effect/phytotoxicity was 90% or greater) | 5 (Herbicidal effect/phytotoxicity was 90% or greater) | 1 (Herbicidal effect/phytotoxicity was 10% to 30%)
CC(C)=CCOc1cc(-c2c(Cl)n3n(c2=O)CCCC3)c(F)cc1Cl [Example 1-219] | 5 (Herbicidal effect/phytotoxicity was 90% or greater) | 5 (Herbicidal effect/phytotoxicity was 90% or greater) | 5 (Herbicidal effect/phytotoxicity was 90% or greater) | 5 (Herbicidal effect/phytotoxicity was 90% or greater) | 5 (Herbicidal effect/phytotoxicity was 90% or greater) | 5 (Herbicidal effect/phytotoxicity was 90% or greater) | 5 (Herbicidal effect/phytotoxicity was 90% or greater) | 5 (Herbicidal effect/phytotoxicity was 90% or greater) | 5 (Herbicidal effect/phytotoxicity was 90% or greater) | 2 (Herbicidal effect/phytotoxicity was 30% to 50%)
C=CCOc1cc(-c2c(Cl)n3n(c2=O)CCCC3)c(F)cc1F [Example 1-101] | 5 (Herbicidal effect/phytotoxicity was 90% or greater) | 5 (Herbicidal effect/phytotoxicity was 90% or greater) | 5 (Herbicidal effect/phytotoxicity was 90% or greater) | 5 (Herbicidal effect/phytotoxicity was 90% or greater) | 5 (Herbicidal effect/phytotoxicity was 90% or greater) | 5 (Herbicidal effect/phytotoxicity was 90% or greater) | 5 (Herbicidal effect/phytotoxicity was 90% or greater) | 5 (Herbicidal effect/phytotoxicity was 90% or greater) | 5 (Herbicidal effect/phytotoxicity was 90% or greater) | 3 (Herbicidal effect/phytotoxicity was 50% to 70%)
Cc1cc(-c2c(Cl)n3n(c2=O)CCCC3)c(F)cc1Cl [Example 1-130] | 5 (Herbicidal effect/phytotoxicity was 90% or greater) | 5 (Herbicidal effect/phytotoxicity was 90% or greater) | 5 (Herbicidal effect/phytotoxicity was 90% or greater) | 5 (Herbicidal effect/phytotoxicity was 90% or greater) | 5 (Herbicidal effect/phytotoxicity was 90% or greater) | 5 (Herbicidal effect/phytotoxicity was 90% or greater) | 5 (Herbicidal effect/phytotoxicity was 90% or greater) | 5 (Herbicidal effect/phytotoxicity was 90% or greater) | 5 (Herbicidal effect/phytotoxicity was 90% or greater) | 1 (Herbicidal effect/phytotoxicity was 10% to 30%)
COc1cc(-c2c(Cl)n3n(c2=O)CCCCC3)c(F)cc1Cl [Example 1-141] | – | – | – | – | – | – | 5 (Herbicidal effect/phytotoxicity was 90% or greater) | 5 (Herbicidal effect/phytotoxicity was 90% or greater) | 5 (Herbicidal effect/phytotoxicity was 90% or greater) | 0 (Herbicidal effect/phytotoxicity was 0% to 10%)
CCOC(=O)COc1cc(-c2c(Cl)n3n(c2=O)CCCC3)c(F)cc1Cl [Example 1-163] | – | – | – | – | – | – | 5 (Herbicidal effect/phytotoxicity was 90% or greater) | 5 (Herbicidal effect/phytotoxicity was 90% or greater) | 5 (Herbicidal effect/phytotoxicity was 90% or greater) | 0 (Herbicidal effect/phytotoxicity was 0% to 10%)
CCOC(=O)C=C(COc1cc(-c2c(Cl)n3n(c2=O)CCCC3)c(F)cc1Cl)OC (mixture of isomers) [Example 2-14] | – | – | – | – | – | – | 5 (Herbicidal effect/phytotoxicity was 90% or greater) | 5 (Herbicidal effect/phytotoxicity was 90% or greater) | 5 (Herbicidal effect/phytotoxicity was 90% or greater) | 0 (Herbicidal effect/phytotoxicity was 0% to 10%)
C=C(COc1cc(-c2c(Cl)n3n(c2=O)CCCC3)c(F)cc1Cl)c1cccc(Cl)c1 [Example 1-228] | – | – | – | – | – | – | 5 (Herbicidal effect/phytotoxicity was 90% or greater) | 5 (Herbicidal effect/phytotoxicity was 90% or greater) | 5 (Herbicidal effect/phytotoxicity was 90% or greater) | 1 (Herbicidal effect/phytotoxicity was 10% to 30%)

— US9580444B2, “Polycyclic pyrazolinone derivative and herbicide comprising same as effective component thereof” (priority 2013, dated 2017)
